This note sets out measurements from ChEMBL document CHEMBL3301451, “MMV Malaria Box gametocyte functional viability assay screening”.

The structures appear in SMILES notation.

Type in all cases: functional
Parameters in all cases: concentration or dose not given beside the values

One test relates to Plasmodium berghei. Nature of the test: MMV: P. berghei-infected blood was withdrawn from mice by cardiac pucture before being immediately added to ookinete culture medium containing test compounds. 26 hr later, GFP-positive ookinetes were identified and counted by automated microscopy. All compounds were tested in 4 independent experiments and data presented here is the mean.

In test [1] the test system is Plasmodium falciparum. The test can be described thus: MMV: P. falciparum NF54 functionally mature Stage V gametocytes were incubated for 24 hr in the presence of the test compounds. Gamete formation was then triggered by addition of 2uM xantheurenic acid and temperature decrease to ~20C. Male gamete exflagellation was recorded and analysed by automated microscopy after 20 min. All compounds were tested in 4 independent experiments and data presented here is the mean.

For test [2], the system named is Plasmodium falciparum. The test can be described thus: MMV: P. falciparum NF54 functionally mature Stage V gametocytes were incubated for 24 hr in the presence of the test compounds. Gamete formation was then triggered by addition of 2uM xantheurenic acid and temperature decrease to ~20C. Female gamete formation was recorded 24 hr later by automated microscopy detection of surface labelling of female gametes with a Cy3-conjugated antibody reactive to Pfs25. All compounds were tested in 4 independent experiments and data presented here is the mean. The following applies: NF54, 24 h.

Broadly, the inhibition is the relative decrease from the control value, in per cent. In the case of `COc1ccc(Nc2nc(N/N=C/c3ccc(O)cc3)nc(Nc3ccc([N+](=O)[O-])cc3)n2)cc1`, the inhibition with Plasmodium berghei was 30.88%; in the test on Plasmodium falciparum [1], -4.02%; in the test with Plasmodium falciparum [2], -19.8%.

For `Nc1nc(Nc2cccc(F)c2)nc2ccccc12`, the inhibition is 16.83% in the test with Plasmodium berghei, -16.2% in the test on Plasmodium falciparum [1] and -41.8% in the test with Plasmodium falciparum [2].

On to `COc1ccc(/C=C2/SC(=Nc3ccccc3)NC2=O)cc1`, for which the inhibition was 15.63% with Plasmodium berghei, 3.39% in the test on Plasmodium falciparum [1] and -46.5% with Plasmodium falciparum [2].

Regarding `CCn1nc(-c2ccc(C(=O)OC)cc2)nc2c(=O)n(C)c(=O)nc1-2`, the inhibition in the test with Plasmodium berghei was 17.71%; in the test with Plasmodium falciparum [1] it was 25.3%; in the test on Plasmodium falciparum [2], -15.8%.

`CCOc1ccccc1CN1CCc2nc3cc(C(C)(C)C)nn3c(O)c2C1`: the inhibition in the test on Plasmodium berghei was 19.57%; in the test with Plasmodium falciparum [1] it was 3.23%; in the test on Plasmodium falciparum [2] it was 5.87%.

Take `O=C(NC1CCN(Cc2ccccc2)CC1)c1cc2nc(-c3ccc(Cl)s3)cc(C(F)(F)F)n2n1`: the results for the inhibition in the test on Plasmodium berghei, in the test on Plasmodium falciparum [1] and in the test on Plasmodium falciparum [2] were 28.86%, -4.49% and -40.5%, respectively.

For `O=C(NNc1cc(N2CCCC2)nc(N2CCCC2)n1)c1ccccc1`, the inhibition with Plasmodium berghei was 26.51%; in the test on Plasmodium falciparum [1] it was 30.4%; in the test on Plasmodium falciparum [2] it was -28.5%.

Turning to `COc1ccc(C2c3ccc4ccccc4c3Oc3ncn(CCCn4ccnc4)c(=N)c32)cc1OC` (centres undefined), the inhibition in the test with Plasmodium berghei is 36.85%; with Plasmodium falciparum [1], 17.5%; with Plasmodium falciparum [2] it was -9.13%.

Take `Cc1ccc(-c2cc3c(nn2)-c2ccccc2C3=O)cc1`: the inhibition is 22.47% in the test on Plasmodium berghei, 30.4% in the test with Plasmodium falciparum [1] and -20.4% in the test with Plasmodium falciparum [2].

With `Cc1ccc(Nc2nc(-c3ccccn3)cs2)cc1`, the inhibition was 12.18% in the test on Plasmodium berghei, 16.3% with Plasmodium falciparum [1] and 0.787% in the test on Plasmodium falciparum [2].

On to `O=C(NCc1ccco1)C1CCN(S(=O)(=O)c2ccc(Cl)cc2)CC1`, for which the inhibition in the test with Plasmodium berghei is 33.84%; in the test on Plasmodium falciparum [1], 46.2%; in the test on Plasmodium falciparum [2], -26.9%.

As to `COc1cc(C(=O)Nc2ccc(-c3nc4ccccc4[nH]3)cc2)cc(OC)c1OC`, the figures for the inhibition in the test with Plasmodium berghei, in the test with Plasmodium falciparum [1] and in the test with Plasmodium falciparum [2] were 21.1%, -40.5% and -25.2%, respectively.

Regarding `FC(F)(F)c1ccc(Nc2nnnc3ccccc23)cc1`, the inhibition was 36.6% in the test with Plasmodium berghei, 33.7% with Plasmodium falciparum [1] and -30.5% in the test with Plasmodium falciparum [2].

With `O=c1nc(C=Cc2ccc(Br)cc2)oc2ccccc12`, the values for the inhibition in the test on Plasmodium berghei, with Plasmodium falciparum [1] and in the test with Plasmodium falciparum [2] were 19.61%, 35.1% and 4.96%, respectively.

`CC(Oc1ccc(NC(=O)c2cccs2)cc1)C(=O)c1ccc(Cl)cc1` (centres undefined): the inhibition was 73.22% in the test on Plasmodium berghei, 25.6% in the test on Plasmodium falciparum [1] and -14% in the test with Plasmodium falciparum [2].

In the case of `Cc1sc2ncnc(Sc3nc4ccccc4[nH]3)c2c1C`, the figures for the inhibition in the test on Plasmodium berghei, in the test on Plasmodium falciparum [1] and with Plasmodium falciparum [2] were 65.53%, 30.8% and -10.9%, respectively.

With `CN(C)c1ccc(C=Cc2nc(=O)c3ccccc3o2)cc1`, the values for the inhibition in the test with Plasmodium berghei, with Plasmodium falciparum [1] and in the test on Plasmodium falciparum [2] were 54.94%, 17.6% and -16.7%, respectively.

Regarding `CCCCNc1nc(NC(C)(C)C)nc(NC(C)(C)C)n1`, the inhibition with Plasmodium berghei was 83.46%; in the test on Plasmodium falciparum [1] it was -9.24%; with Plasmodium falciparum [2] it was -29.6%.

Turning to `O=C(O)C(=O)O.Oc1ccccc1CN1CCN(C(c2ccccc2)c2ccccc2)CC1`, the inhibition is 19.05% in the test on Plasmodium berghei, 23.5% in the test on Plasmodium falciparum [1] and -11.9% with Plasmodium falciparum [2].

For `OC(CNC1CCCCC1)Cn1c2ccccc2c2ccccc21` (centres undefined), the inhibition in the test with Plasmodium berghei stood at 28.1%; in the test with Plasmodium falciparum [1], 12.1%; with Plasmodium falciparum [2], 4.91%.

For `COc1cccc(C=Cc2nc(=O)c3ccccc3o2)c1OC`, the inhibition in the test with Plasmodium berghei was 98.18%; in the test with Plasmodium falciparum [1], -2.89%; in the test with Plasmodium falciparum [2] it was -15.1%.

Regarding `COc1ccc(CCn2c(=N)c(C(=O)NCc3cccnc3)cc3c(=O)n4cccc(C)c4nc32)cc1`, the results for the inhibition with Plasmodium berghei, in the test with Plasmodium falciparum [1] and in the test with Plasmodium falciparum [2] were 23.24%, -7.17% and -20.7%, respectively.

For the compound `COc1ccc(-c2cn3c(C(=O)Nc4ccccc4Cl)c(-c4ccccc4)c4c3n2CCCC4)cc1`, the inhibition is 15.55% with Plasmodium berghei, -67.8% in the test on Plasmodium falciparum [1] and -34.6% with Plasmodium falciparum [2].

For the compound `Cc1ccc(CSCc2ccc(C(=O)NC3CC3)o2)cc1`, the inhibition with Plasmodium berghei was 11.64%; in the test on Plasmodium falciparum [1], 34.4%; with Plasmodium falciparum [2], -29.1%.

With `COc1ccc(C=C2SC(Nc3ccc(F)cc3)=NC2=O)c(OC)c1`, the inhibition in the test on Plasmodium berghei was 49.11%; with Plasmodium falciparum [1], 42.9%; in the test with Plasmodium falciparum [2], -24.5%.

Consider `Cc1ccc(-c2cc3nc4c(c(O)n3n2)CCCC4)cc1`, for which the inhibition is 12.06% with Plasmodium berghei, 22.3% in the test with Plasmodium falciparum [1] and -14.6% in the test with Plasmodium falciparum [2].

For `COc1cccc(C(=O)Nc2ccc(-c3nc4ccccc4[nH]3)cc2)c1`, the inhibition came out at 18.46% in the test with Plasmodium berghei, 24% in the test with Plasmodium falciparum [1] and 1.53% with Plasmodium falciparum [2].

Consider `CCN(Cc1ccccc1)C1CCN(Cc2cc(Br)ccc2O)CC1.O=C(O)C(=O)O`, for which the inhibition was 11.31% in the test with Plasmodium berghei, 7.05% in the test on Plasmodium falciparum [1] and -4.68% in the test on Plasmodium falciparum [2].

In the case of `OCCNc1nc(Nc2ccc(Cl)c(Cl)c2)nc2ccccc12`, the inhibition in the test on Plasmodium berghei is 17.26%; in the test with Plasmodium falciparum [1], -35.4%; with Plasmodium falciparum [2], -25.8%.

Consider `Nc1ccc(-c2nc3cc(Oc4ccc(Oc5ccc6[nH]c(-c7ccc(N)cc7)nc6c5)cc4)ccc3[nH]2)cc1`, for which the inhibition in the test on Plasmodium berghei is 13.14%; with Plasmodium falciparum [1], 3.94%; with Plasmodium falciparum [2] it was -54.1%.

For the compound `CC1CCN(Cc2c(O)ccc3cc(-c4nc5ccccc5s4)c(=O)oc23)CC1`, the inhibition in the test on Plasmodium berghei was 100%; in the test on Plasmodium falciparum [1], -4.49%; in the test with Plasmodium falciparum [2], -24.7%.

Turning to `c1ccc2cc3c(Nc4ccc(N5CCOCC5)cc4)ccnc3cc2c1`, the inhibition with Plasmodium berghei is 12.53%; with Plasmodium falciparum [1], 13.2%; with Plasmodium falciparum [2], -0.0777%.

Turning to `Cc1c(C)n(Cc2ccc(F)cc2)c2ccc(C(=O)NCc3ccco3)cc12`, the inhibition in the test on Plasmodium berghei is 17.74%; in the test with Plasmodium falciparum [1], 49.7%; in the test on Plasmodium falciparum [2] it was -40.2%.

For the compound `CCN(CC)c1ccc(NC(=O)c2cccs2)cc1`, the results for the inhibition in the test on Plasmodium berghei, in the test with Plasmodium falciparum [1] and with Plasmodium falciparum [2] were 23.39%, 44.7% and -5.42%, respectively.

`CC(C)(C)C(=O)Nc1ccc(C(=O)Nc2cccc(-c3nc4ccccc4[nH]3)c2)cc1`: the inhibition is 14.15% with Plasmodium berghei, 11% in the test with Plasmodium falciparum [1] and -2.43% in the test with Plasmodium falciparum [2].

On to `O=C(Nc1ccc(N2CCN(Cc3ccccc3)CC2)cc1)c1cccs1.O=C(O)C(F)(F)F`, for which the inhibition with Plasmodium berghei worked out at 16.79%; in the test with Plasmodium falciparum [1], 39.5%; in the test on Plasmodium falciparum [2], 16.2%.

Turning to `O=C(Nc1ccc(Cl)cc1C(=O)Nc1ccncc1)c1ccc(Cl)cc1Cl`, the inhibition in the test with Plasmodium berghei was 36.2%; with Plasmodium falciparum [1] it was 7.46%; in the test on Plasmodium falciparum [2] it was 9.34%.

Consider `O=C1CC(O)(C(F)(F)C(F)(F)F)Oc2ccccc21` (centres undefined), for which the results for the inhibition in the test with Plasmodium berghei and in the test with Plasmodium falciparum [2] were -0.9117% and -15.2%, respectively.

As to `Cc1ccc(C2CC(C(F)(F)F)n3nc(C(=O)N4CCN(C(c5ccccc5)c5ccccc5)CC4)cc3N2)cc1` (centres undefined), the inhibition in the test on Plasmodium berghei was 12.55%; with Plasmodium falciparum [1], 8.58%; with Plasmodium falciparum [2], -8.56%.

As to `CC(C)(C)c1ccc(C(=O)Nc2nc3ccccc3s2)cc1`, the figures for the inhibition in the test on Plasmodium berghei, with Plasmodium falciparum [1] and in the test on Plasmodium falciparum [2] were 18.69%, 26.1% and -4.04%, respectively.

For `O=C(NCc1ccco1)C1CCN(S(=O)(=O)c2ccc(Br)cc2)CC1`, the inhibition in the test with Plasmodium berghei was determined as 31.69%; in the test on Plasmodium falciparum [1], 29.2%; with Plasmodium falciparum [2] it was 5.71%.

On to `Oc1c(CN2CCN(c3ccccc3F)CC2)cc(Br)c2cccnc12`, for which the inhibition in the test on Plasmodium berghei came out at 34.85%; in the test with Plasmodium falciparum [1], 5.41%; with Plasmodium falciparum [2] it was 31.5%.

For the compound `CCCc1c(C)nc2ccc(Br)cc2c1O`, the inhibition was 47.59% in the test on Plasmodium berghei, -14.5% in the test with Plasmodium falciparum [1] and -18.5% in the test with Plasmodium falciparum [2].

With `CCCc1c(C)nc2ccccc2c1O`, the inhibition with Plasmodium berghei turned out to be 34.59%; with Plasmodium falciparum [1], 66.4%; in the test with Plasmodium falciparum [2], 1.84%.

In the case of `CCOc1ccc(Nc2c3ccccc3nc3ccccc23)cc1.Cl`, the results for the inhibition in the test on Plasmodium berghei, in the test on Plasmodium falciparum [1] and in the test on Plasmodium falciparum [2] were 63.73%, 21.7% and -9.14%, respectively.

Regarding `CCCCc1c(C)nc2c(OC)cccc2c1O`, the inhibition in the test on Plasmodium berghei was determined as 20.97%; with Plasmodium falciparum [1] it was 54.7%; with Plasmodium falciparum [2], 0.0743%.

For `CCCCCCc1cc2cc(-c3nc4ccccc4[nH]3)c(=Nc3ccccc3C)oc2cc1O`, the inhibition in the test with Plasmodium berghei is 23.15%; with Plasmodium falciparum [1] it was 9.8%; in the test with Plasmodium falciparum [2] it was 5.88%.

On to `COc1ccc(C2Sc3ccccc3N=C3C2=C(O)c2ccccc23)cc1` (centres undefined), for which the inhibition with Plasmodium berghei came to 68.07%; in the test on Plasmodium falciparum [1], 32.2%; with Plasmodium falciparum [2] it was 0.279%.

For the compound `COc1ccccc1N1C(=N)SC(=Cc2ccc(OCc3ccccc3F)cc2)C1=O`, the results for the inhibition in the test with Plasmodium berghei, with Plasmodium falciparum [1] and in the test on Plasmodium falciparum [2] were 33.34%, 12.8% and 10.4%, respectively.

`C=CCc1c(C)nc2ccccc2c1O`: the inhibition in the test with Plasmodium berghei was 19.81%; in the test with Plasmodium falciparum [1], 52.3%; in the test with Plasmodium falciparum [2], -51.4%.
